Each structure is given as a SMILES string.

The target in this assay is Recombinant human BACE1 (Homo sapiens (Human), UniProt P56817). Put plainly: Assay of BACE1 inhibiting activity. The format is biochemical. As to conditions: read-out: IC50 (50% inhibitory concentration against the enzymatic activity); Recombinant human BACE1 7.4 nmol/L, substrate peptide 18 nmol/L, pH 5.0, 30° C., 3 hours. On the procedure: 48.5 μL of substrate peptide solution (Biotin-XSEVNLDAEFRHDSGC-Eu: X=ε-amino-n-capronic acid, Eu=Europium cryptate) was added to each well of 96-hole half-area plate (a black plate: Costar), and after addition of 0.5 μl of the test compound (dissolved in N,N′-dimethyl formaldehyde) and 1 μl of Recombinant human BACE1(R&D Systems), the reaction mixture was incubated at 30° C. for 3 hours. The substrate peptide was synthesized by reacting Cryptate TBPCOOH mono SMP (CIS bio international) with Biotin-XSEVNLDAEFRHDSGC (Peptide Institute, Inc.).
Recombinant human BACE1, sequence (P56817 46-501): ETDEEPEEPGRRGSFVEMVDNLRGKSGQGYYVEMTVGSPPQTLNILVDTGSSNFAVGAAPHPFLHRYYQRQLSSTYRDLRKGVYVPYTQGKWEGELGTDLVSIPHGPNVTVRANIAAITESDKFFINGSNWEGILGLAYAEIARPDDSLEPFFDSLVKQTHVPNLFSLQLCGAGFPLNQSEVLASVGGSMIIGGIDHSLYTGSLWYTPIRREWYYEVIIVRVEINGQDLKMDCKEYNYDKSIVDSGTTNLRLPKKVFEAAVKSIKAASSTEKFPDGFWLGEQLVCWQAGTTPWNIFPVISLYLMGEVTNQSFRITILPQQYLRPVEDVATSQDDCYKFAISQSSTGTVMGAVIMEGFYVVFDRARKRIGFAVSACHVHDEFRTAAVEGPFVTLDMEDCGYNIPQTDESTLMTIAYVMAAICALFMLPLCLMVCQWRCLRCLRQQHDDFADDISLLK
After the incubation for reaction, 50 μl of 8.0 μg/ml Streptavidin-XL665 (CIS bio international) dissolved in phosphate buffer (150 mmol/L K2HPO4—KH2PO4, pH 7.0, 0.008% Triton X-100, 0.8 mol/L KF) was added to each well and left stand at 30° C. for an hour.
In the case of `C=C1C[C@@](C)(c2cc(NC(=O)c3ncc(Cl)cc3Cl)ccc2F)N=C(N)O1` [Compound I-4], the IC50 is not above 30 µM.

As for `C=C1C[C@@](C)(c2cc(NC(=O)c3cnc(OC)cn3)ccc2F)N=C(N)O1` [Compound I-3], the IC50 was not above 30 µM.

In the case of `C=C1C[C@@](C)(c2cc(NC(=O)c3ncc(F)cc3F)ccc2F)N=C(N)O1` [Compound I-5], the IC50 is not above 30 µM.

Regarding `C=C1C[C@@](C)(c2cc(NC(=O)c3ccc(Cl)cn3)ccc2F)N=C(N)O1` [Compound I-2], the IC50 was determined as 0.027 µM.
